Reference: patent US20260256792A1, “TREATMENT OF CHRONIC SPONTANEOUS URTICARIA BY ADMINISTERING (R)-2-[3-[4-AMINO-3-(2-FLUORO-4-PHENOXY-PHENYL)PYRAZOLO[3,4-D]PYRIMIDIN-1-YL]PIPERIDINE-1-CARBONYL]-4-METHYL-4-[4-(OXETAN-3-YL)PIPERAZIN-1-YL]PENT-2-ENENITRILE” (priority 2023, published 2026)

Test system: moderate-to-severe chronic spontaneous urticaria (CSU)
Test: Phase 2 CSU study: urticaria activity score over 7 days (UAS7)
Type: in vivo, human
Parameters: key to UAS7 Median / UAS7 Change from baseline Median / UAS7 change from baseline, Q1 / UAS7 change from baseline, Q3 / UAS7 change from baseline, Max / UAS7 Change from baseline LS Mean (SE): UAS7 points; daily UAS score ranges 0–6 points/day, over 7 days
From the text: The study comprises a 12 week, randomized, double-blind, placebo-controlled, multi-center, dose-ranging efficacy and safety phase, followed by a 40 week open label extension (OLE) phase (see FIG. 1). The study consists of three phases and an optional OLE phase. […] Clinically, CSU is characterized by the spontaneous and recurrent appearance of pruritic hives. The proposed primary endpoints were the UAS7 at Week 12 in EU and EU reference countries and the ISS7 in the US. Regardless of where a participant was from, all assessments were the same. The UAS7 score is a composite score containing both the HSS7 and the ISS7. This allowed a global assessment of the two key components of urticaria: hives and itch. […] The UAS is a validated PRO measure. […] The daily UAS scores range from 0 to 6 point/day. […] Patients were to complete the UAS using the e-diary. […] The following secondary endpoints were to be analyzed using the same approach as for the primary endpoint: • Change from baseline in UAS7 at Week 4 • Change from baseline in UAS7 at Week 12 (for US and US reference countries) • Change from baseline in ISS7 at Week 12 (except US and US reference countries) • Change from baseline in HSS7 at Week 12 The following responder secondary endpoints were to be analyzed using the Cochran-Mantel-Haenszel test adjusted by region: • Proportion of participants with UAS7<6 at Week 12 • Proportion of participants with UAS7=0 at Week 12 Participants who received selected prohibited medications and/or rescue medications were to be considered as non-responders for time points after the medication usage. For other participants, all available data including those collected during the off-treatment period were to be used to determine the responder/non-responder status. Missing data were to be considered as non-responders.

[1] = Week 7, 400 mg BID, Prior Omalizumab Use
[2] = Week 7, 400 mg BID, omalizumab-naive participants
[3] = Week 7, 400 mg QPM, ITT population
[4] = Week 7, 400 mg QPM, Omalizumab-Naïve
[5] = Week 7, 400 mg QPM, Prior Omalizumab Use
[6] = Week 7, 400 mg QPM, omalizumab-naive participants
[7] = Week 7, 400 mg TID, ITT population
[8] = Week 7, 400 mg TID, Omalizumab-Naïve
[9] = Week 7, 400 mg TID, Prior Omalizumab Use
[10] = Week 7, 400 mg TID, omalizumab-naive participants
[11] = Week 8, 400 mg BID, ITT population
[12] = Week 8, 400 mg BID, Omalizumab-Naïve
[13] = Week 8, 400 mg BID, Prior Omalizumab Use
[14] = Week 8, 400 mg BID, omalizumab-naive participants

CC(C)(C=C(C#N)C(=O)N1CCC[C@@H](n2nc(-c3ccc(Oc4ccccc4)cc3F)c3c(N)ncnc32)C1)N1CCN(C2COC2)CC1 [rilzabrutinib, (R)-2-[3-[4-amino-3-(2-fluoro-4-phenoxy-phenyl)pyrazolo[3,4-d]pyrimidin-1-yl]piperidine-1-carbonyl]-4-methyl-4-[4-(oxetan-3-yl)piperazin-1-yl]pent-2-enenitrile]
UAS7 Percent change from baseline Median (Week 7, 400 mg BID, Omalizumab-Naïve): −48.28% | UAS7 Change from baseline Mean (SD) [1]: −20.40 (19.58) | UAS7 Change from baseline Median [1]: −25.00 | UAS7 Mean (SD) [1]: 11.60 (15.79) | UAS7 Median [1]: 2.00 | UAS7 Percent change from baseline Mean (SD) [1]: −58.52 (53.51) % | UAS7 Percent change from baseline Median [1]: −92.59% | Non-responder, UAS7 reduction from baseline of 10 points or more [2]: 15 (42.9) n (%) | OR for rilzabrutinib vs. placebo, UAS7 reduction of 10 points or more [2]: 2.154 | RRD (%) for rilzabrutinib vs. placebo, UAS7 reduction of 10 points or more [2]: 18.5 % | Responder, UAS7 reduction from baseline of 10 points or more [2]: 20 (57.1) n (%) | Non-responder, UAS7 reduction from baseline of 10 points or more [3]: 22 (57.9) n (%) | OR for rilzabrutinib vs. placebo, UAS7 reduction of 10 points or more [3]: 1.159 | RRD (%) for rilzabrutinib vs. placebo, UAS7 reduction of 10 points or more [3]: 3.5 % | Responder, UAS7 reduction from baseline of 10 points or more [3]: 16 (42.1) n (%) | UAS7 Change from baseline Mean (SD) [4]: −10.92 (10.06) | UAS7 Change from baseline Median [4]: −9.00 | UAS7 Mean (SD) [4]: 21.11 (10.03) | UAS7 Median [4]: 18.20 | UAS7 Percent change from baseline Mean (SD) [4]: −33.33 (28.49) % | UAS7 Percent change from baseline Median [4]: −36.11% | UAS7 Change from baseline Mean (SD) [5]: −24.00 (NC) | UAS7 Change from baseline Median [5]: −24.00 | UAS7 Mean (SD) [5]: 17.00 (NC) | UAS7 Median [5]: 17.00 | UAS7 Percent change from baseline Mean (SD) [5]: −58.54 (NC) % | UAS7 Percent change from baseline Median [5]: −58.54% | Non-responder, UAS7 reduction from baseline of 10 points or more [6]: 22 (59.5) n (%) | OR for rilzabrutinib vs. placebo, UAS7 reduction of 10 points or more [6]: 1.096 | RRD (%) for rilzabrutinib vs. placebo, UAS7 reduction of 10 points or more [6]: 2.2 % | Responder, UAS7 reduction from baseline of 10 points or more [6]: 15 (40.5) n (%) | Non-responder, UAS7 reduction from baseline of 10 points or more [7]: 16 (39.0) n (%) | OR for rilzabrutinib vs. placebo, UAS7 reduction of 10 points or more [7]: 2.334 | RRD (%) for rilzabrutinib vs. placebo, UAS7 reduction of 10 points or more [7]: 18.7 % | Responder, UAS7 reduction from baseline of 10 points or more [7]: 25 (61.0) n (%) | UAS7 Change from baseline Median [8]: −15.00 | UAS7 Mean (SD) [8]: 13.54 (9.34) | UAS7 Median [8]: 14.00 | UAS7 Percent change from baseline Mean (SD) [8]: −54.22 (30.59) % | UAS7 Percent change from baseline Median [8]: −52.50% | UAS7 Change from baseline Mean (SD) [9]: −20.86 (14.89) | UAS7 Change from baseline Median [9]: −16.00 | UAS7 Mean (SD) [9]: 12.17 (10.21) | UAS7 Percent change from baseline Mean (SD) [9]: −58.95 (28.44) % | UAS7 Percent change from baseline Median [9]: −51.29% | Non-responder, UAS7 reduction from baseline of 10 points or more [10]: 13 (37.1) n (%) | OR for rilzabrutinib vs. placebo, UAS7 reduction of 10 points or more [10]: 2.765 | RRD (%) for rilzabrutinib vs. placebo, UAS7 reduction of 10 points or more [10]: 22.3 % | Responder, UAS7 reduction from baseline of 10 points or more [10]: 22 (62.9) n (%) | Non-responder, UAS7 reduction from baseline of 10 points or more [11]: 17 (41.5) n (%) | OR for rilzabrutinib vs. placebo, UAS7 reduction of 10 points or more [11]: 1.985 | RRD (%) for rilzabrutinib vs. placebo, UAS7 reduction of 10 points or more [11]: 17.5 % | Responder, UAS7 reduction from baseline of 10 points or more [11]: 24 (58.5) n (%) | UAS7 Change from baseline Mean (SD) [12]: −15.64 (11.76) | UAS7 Change from baseline Median [12]: −16.00 | UAS7 Mean (SD) [12]: 13.98 (13.06) | UAS7 Median [12]: 10.00 | UAS7 Percent change from baseline Mean (SD) [12]: −54.37 (38.23) % | UAS7 Percent change from baseline Median [12]: −64.29% | UAS7 Change from baseline Mean (SD) [13]: −21.00 (19.13) | UAS7 Change from baseline Median [13]: −26.00 | UAS7 Mean (SD) [13]: 11.00 (15.67) | UAS7 Median [13]: 1.00 | UAS7 Percent change from baseline Mean (SD) [13]: −61.16 (51.62) % | UAS7 Percent change from baseline Median [13]: −96.30% | Non-responder, UAS7 reduction from baseline of 10 points or more [14]: 14 (40.0) n (%) | OR for rilzabrutinib vs. placebo, UAS7 reduction of 10 points or more [14]: 2.484
